From PubChem BioAssay AID1918940 (Molecular Pharmacology Branch, DTP, NCI, 2023)

Tested on: NCI-H211 complex spheroid viability
Assay: Anticancer human tumor NCI-H211 cell line growth inhibition [LSD1];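 note: luminescent viability read after seven days of drug exposure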;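 for viability, T/C: 100% = DMSO vehicle control viability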
Conditions: for IC50: curve of first compound; for viability, T/C: stronger effect = lower value
Outline: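 Drug combinations with the LSD1 inhibitor iadademstat tested on tumor cells co-cultured as spheroids with endothelial cells and mesenchymal stem cells. Concentrations descended in half-log increments from clinical Cmax or 10 microM.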

Work on `CC1COCCN1c1cc(C2(S(C)(=N)=O)CC2)nc(-c2ccnc3[nH]ccc23)n1` (stereo not given) + NC1CC1c1ccc(-c2cccc(O)c2)cc1 yielded an IC50 (second compound 0.1 µM) of 258 nM, an IC50 (second compound 0.316 µM) of 264 nM and an IC50 (second compound 1 µM) of 381 nM. For the same compound, the IC50 (second compound 3.16 µM) was 317 nM, the IC50 (second compound 10 µM) was 115 nM and the viability, T/C (second compound 0.1 µM, first compound 0.0316 µM) was 89.3%. The viability, T/C (second compound 0.1 µM, first compound 0.1 µM) was 68.7%, the viability, T/C (second compound 0.1 µM, first compound 0.316 µM) was 48.5% and the viability, T/C (second compound 0.1 µM, first compound 1 µM) was 19.1%. It also gave a viability, T/C (second compound 0.1 µM, first compound 3.16 µM) of 4.67%, a viability, T/C (second compound 0.1 µM, first compound 10 µM) of 2.73% and a viability, T/C (second compound 0.316 µM, first compound 0.0316 µM) of 85.4%. It also gave a viability, T/C (second compound 0.316 µM, first compound 0.1 µM) of 72.9%, a viability, T/C (second compound 0.316 µM, first compound 0.316 µM) of 46.9% and a viability, T/C (second compound 0.316 µM, first compound 1 µM) of 13.5%. It also gave a viability, T/C (second compound 0.316 µM, first compound 3.16 µM) of 5.02%, a viability, T/C (second compound 0.316 µM, first compound 10 µM) of 2.53% and a viability, T/C (second compound 1 µM, first compound 0.0316 µM) of 74.2%. It also gave a viability, T/C (second compound 1 µM, first compound 0.1 µM) of 64.3%, a viability, T/C (second compound 1 µM, first compound 0.316 µM) of 57.5% and a viability, T/C (second compound 1 µM, first compound 1 µM) of 15%. For the same compound, the viability, T/C (second compound 1 µM, first compound 3.16 µM) was 5.48%, the viability, T/C (second compound 1 µM, first compound 10 µM) was 3.11% and the viability, T/C (second compound 3.16 µM, first compound 0.0316 µM) was 69.6%. For the same compound, the viability, T/C (second compound 3.16 µM, first compound 0.1 µM) was 73.2%, the viability, T/C (second compound 3.16 µM, first compound 0.316 µM) was 48.8% and the viability, T/C (second compound 3.16 µM, first compound 1 µM) was 16.3%. The viability, T/C (second compound 3.16 µM, first compound 3.16 µM) was 5.24%, the viability, T/C (second compound 3.16 µM, first compound 10 µM) was 3% and the viability, T/C (second compound 10 µM, first compound 0.0316 µM) was 65.7%. It also gave a viability, T/C (second compound 10 µM, first compound 0.1 µM) of 51.6%, a viability, T/C (second compound 10 µM, first compound 0.316 µM) of 33.1% and a viability, T/C (second compound 10 µM, first compound 1 µM) of 14.5%. For the same compound, the viability, T/C (second compound 10 µM, first compound 3.16 µM) was 5.1% and the viability, T/C (second compound 10 µM, first compound 10 µM) was 3.28%.
